Measurements: ChEMBL document CHEMBL5108064, “Comparative Analysis of Small-Molecule LIMK1/2 Inhibitors: Chemical Synthesis, Biochemistry, and Cellular Activity” (J Med Chem, 2022)

Test: Volume of distribution at steady state in Sprague-Dawley rat at 0.5 mg/kg, iv by LCMS/MS analysis
Type: ADME, organism-based
Details: in vivo, read-out: Vdss

Vd: 0.5 L/kg
Structure (SMILES): Cc1c[nH]c2ncnc(N3CCC(CN)(C(=O)Nc4cccc(OC(=O)N(C)C)c4)CC3)c12 [LX-7101]
